Measured values from ChEMBL document CHEMBL3784995, “Inhibitors of HIV-1 maturation: Development of structure-activity relationship for C-28 amides based on C-3 benzoic acid-modified triterpenoids” (Bioorg Med Chem Lett, 2016).

Tests used:
[1] = test system: Human immunodeficiency virus 1; assay: Antiviral activity against wild type HIV1 NL4-3 habouring Gag protein delta V370 infected in human MT2 cells after 4 to 5 days by dual-luciferase reporter gene assay; format: functional, organism-based; details: Human immunodeficiency virus 1, NL4-3, MT2
[2] = Bioavailability in cannula implanted rat at 5 mg/kg administered through oral gavage after 24 hrs by LC-MS/MS analysis; format: ADME, organism-based; details: in vivo
[3] = test system: Human immunodeficiency virus 1; assay: Antiviral activity against wild type HIV1 NL4-3 infected in human MT2 cells after 4 to 5 days by dual-luciferase reporter gene assay in presence of human serum albumin; format: functional, organism-based; details: Human immunodeficiency virus 1, NL4-3, MT2
[4] = test system: Human immunodeficiency virus 1; assay: Antiviral activity against wild type HIV1 NL4-3 infected in human MT2 cells after 4 to 5 days by dual-luciferase reporter gene assay; format: functional, organism-based; details: Human immunodeficiency virus 1, NL4-3, MT2
[5] = Cytotoxicity against human MT2 cells; format: cell-based
[6] = test system: Human immunodeficiency virus 1; assay: Antiviral activity against wild type HIV1 NL4-3 habouring Gag protein V370A mutant infected in human MT2 cells after 4 to 5 days by dual-luciferase reporter gene assay; format: functional, organism-based; details: Human immunodeficiency virus 1, NL4-3, MT2
[7] = Plasma clearance in cannula implanted rat at 1 mg/kg, iv by LC-MS/MS analysis; format: ADME, organism-based
[8] = AUC (0 to 6 hrs) in cannula implanted rat at 5 mg/kg administered through oral gavage after 24 hrs by LC-MS/MS analysis; format: ADME, organism-based; parameters: dose 5 mg/kg, time < 6 hr, route oral; details: in vivo
[9] = Metabolic stability in human liver microsomes at 0.5 uM by LC-MS/MS analysis in presence of NADPH; format: ADME
[10] = Metabolic stability in rat liver microsomes at 0.5 uM by LC-MS/MS analysis in presence of NADPH; format: ADME
[11] = test system: Human immunodeficiency virus 1; assay: Antiviral activity against wild type BVM-resistant HIV1 NL4-3 habouring Gag protein T371A mutant infected in human MT2 cells after 4 to 5 days by dual-luciferase reporter gene assay; format: functional, organism-based; details: Human immunodeficiency virus 1, NL4-3, MT2
[12] = Plasma concentration in cannula implanted rat at 5 mg/kg administered through oral gavage after 24 hrs by LC-MS/MS analysis; format: ADME, organism-based
[13] = (§1) Total AUC in cannula implanted rat at 5 mg/kg administered through oral gavage after 24 hrs by LC-MS/MS analysis; format: ADME, organism-based; parameters: dose 5 mg/kg, time AUCmax, route oral; details: in vivo
[14] = in vivo; details: rat, iv, 1 mg/kg
Description: Volume of distribution at steady state in cannula implanted rat at 1 mg/kg, iv by LC-MS/MS analysis

[15] = test system: Human immunodeficiency virus 1; assay: Antiviral activity against wild type BVM-resistant HIV1 NL4-3 habouring Gag protein V370M mutant infected in human MT2 cells after 4 to 5 days by dual-luciferase reporter gene assay; format: functional, organism-based; details: Human immunodeficiency virus 1, NL4-3, MT2
[16] = Cmax in cannula implanted rat at 5 mg/kg administered through oral gavage after 24 hrs by LC-MS/MS analysis; format: ADME, organism-based; parameters: dose 5 mg/kg, route oral; details: in vivo
[17] = test system: Human immunodeficiency virus 1; assay: Antiviral activity against wild type BVM-resistant HIV1 NL4-3 habouring Gag protein delta T371 infected in human MT2 cells after 4 to 5 days by dual-luciferase reporter gene assay; format: functional, organism-based; details: Human immunodeficiency virus 1, NL4-3, MT2
[18] = test system: Rattus norvegicus; assay: as §1; format: ADME, organism-based; parameters: dose 5 mg/kg, time AUCmax, route oral; details: in vivo, 24 h

SMILES | EC50 [1] [nM] | bioavailability [2] [%] | EC50 [3] [nM] | EC50 [4] [nM] | CC50 [5] [nM] | EC50 [6] [nM] | clearance [7] [mL/min/kg] | AUC(0-t) at 6 h [8] [µM·h] | half-life at 0.5 µM [9] [h] | half-life at 0.5 µM [10] [h] | EC50 [11] [nM] | concentration at 24 h [12] [nM] | AUC at 24 h [13] [µM·h] | Vd [14] [L/kg] | EC50 [15] [nM] | Cmax [16] [nM] | EC50 [17] [nM] | AUC [18] [µM·h]
C=C(C)[C@@H]1CC[C@]2(C(=O)O)CC[C@]3(C)[C@H](CC[C@@H]4[C@@]5(C)CC=C(c6ccc(C(=O)O)cc6)C(C)(C)[C@@H]5CC[C@]43C)[C@@H]12 | > 6000 | 4 |  |  |  |  |  |  |  |  |  |  |  |  |  |  |  | 
C=C(C)[C@@H]1CC[C@]2(C(=O)NC)CC[C@]3(C)[C@H](CC[C@@H]4[C@@]5(C)CC=C(c6ccc(C(=O)O)cc6)C(C)(C)[C@@H]5CC[C@]43C)[C@@H]12 |  |  | 28 | 10 | 7000 | 252 |  |  |  |  |  |  |  |  |  |  |  | 
C=C(C)[C@@H]1CC[C@]2(C(=O)NCCN(CC)CC(=O)O)CC[C@]3(C)[C@H](CC[C@@H]4[C@@]5(C)CC=C(c6ccc(C(=O)O)cc6)C(C)(C)[C@@H]5CC[C@]43C)[C@@H]12 | 64 |  |  | 3 | 17000 | 9 | 26.7 | 0.22 | > 2 | > 2 |  |  |  |  |  |  |  | 
C=C(C)[C@@H]1CC[C@]2(C(=O)NCCc3ccccn3)CC[C@]3(C)[C@H](CC[C@@H]4[C@@]5(C)CC=C(c6ccc(C(=O)O)cc6)C(C)(C)[C@@H]5CC[C@]43C)[C@@H]12 | 415 | 3 |  | 15 | 8000 | 19 | 3.2 | 0.721 | 0.717 | > 2 | 19 | 5 | 1.23 | 1.1 | 61 | 172 | 38 | 
C=C(C)[C@@H]1CC[C@]2(C(=O)NS(=O)(=O)C3CC3)CC[C@]3(C)[C@H](CC[C@@H]4[C@@]5(C)CC=C(c6ccc(C(=O)O)cc6)C(C)(C)[C@@H]5CC[C@]43C)[C@@H]12 | 1190 |  | 166 | 59 | 18000 | 67 |  |  |  |  |  |  |  |  |  |  |  | 
C=C(C)[C@@H]1CC[C@]2(C(=O)NCCC(C)C)CC[C@]3(C)[C@H](CC[C@@H]4[C@@]5(C)CC=C(c6ccc(C(=O)O)cc6)C(C)(C)[C@@H]5CC[C@]43C)[C@@H]12 | 1610 |  |  | 47 | 11000 | 101 | 0.6 | 1.58 |  |  |  |  |  |  |  | 731 |  | 
C=C(C)[C@@H]1CC[C@]2(C(=O)NCCN(CC)CC)CC[C@]3(C)[C@H](CC[C@@H]4[C@@]5(C)CC=C(c6ccc(C(=O)O)cc6)C(C)(C)[C@@H]5CC[C@]43C)[C@@H]12 | 39 |  |  | 2 | 33000 | 7 | 3.3 | 0.809 |  |  |  |  |  |  |  | 229 |  | 
C=C(C)[C@@H]1CC[C@]2(C(=O)N(C)CCN(C)C)CC[C@]3(C)[C@H](CC[C@@H]4[C@@]5(C)CC=C(c6ccc(C(=O)O)cc6)C(C)(C)[C@@H]5CC[C@]43C)[C@@H]12 | 25 | 11 | 17 | 6 | 3000 | 38 | 2.2 | 1.42 | > 2 | 1.42 |  | 108 | 6.87 |  |  | 386 |  | 
C=C(C)[C@@H]1CC[C@]2(C(=O)NCc3ccccn3)CC[C@]3(C)[C@H](CC[C@@H]4[C@@]5(C)CC=C(c6ccc(C(=O)O)cc6)C(C)(C)[C@@H]5CC[C@]43C)[C@@H]12 |  |  | 9 | 5 | 1000 | 31 |  |  |  |  |  |  |  |  |  |  |  | 
C=C(C)[C@@H]1CC[C@]2(C(=O)NCCC(=O)O)CC[C@]3(C)[C@H](CC[C@@H]4[C@@]5(C)CC=C(c6ccc(C(=O)O)cc6)C(C)(C)[C@@H]5CC[C@]43C)[C@@H]12 | > 4000 | 71 | 449 | 37 | 36000 | 427 | 1.2 | 43.2 | 1.88 | > 2 |  | 137 | 79.9 | 0.02 |  | 9470 |  | 
C=C(C)[C@@H]1CC[C@]2(C(=O)NS(C)(=O)=O)CC[C@]3(C)[C@H](CC[C@@H]4[C@@]5(C)CC=C(c6ccc(C(=O)O)cc6)C(C)(C)[C@@H]5CC[C@]43C)[C@@H]12 |  |  | 1520 | 47 | 16000 | 282 |  |  |  |  |  |  |  |  |  |  |  | 
C=C(C)[C@@H]1CC[C@]2(C(=O)NCCNC(C)=O)CC[C@]3(C)[C@H](CC[C@@H]4[C@@]5(C)CC=C(c6ccc(C(=O)O)cc6)C(C)(C)[C@@H]5CC[C@]43C)[C@@H]12 | 361 |  | 22 | 5 | 12000 | 24 |  |  |  |  |  |  |  |  |  |  |  | 
C=C(C)[C@@H]1CC[C@]2(C(=O)N3CCCCC3)CC[C@]3(C)[C@H](CC[C@@H]4[C@@]5(C)CC=C(c6ccc(C(=O)O)cc6)C(C)(C)[C@@H]5CC[C@]43C)[C@@H]12 |  |  | 1580 | 369 | 200 |  |  |  |  |  |  |  |  |  |  |  |  | 
C=C(C)[C@@H]1CC[C@]2(C(=O)NCCO)CC[C@]3(C)[C@H](CC[C@@H]4[C@@]5(C)CC=C(c6ccc(C(=O)O)cc6)C(C)(C)[C@@H]5CC[C@]43C)[C@@H]12 | > 2000 |  | 39 | 7 | 7000 | 41 |  |  |  |  |  |  |  |  |  |  |  | 
C=C(C)[C@@H]1CC[C@]2(C(=O)NCCN(C)C)CC[C@]3(C)[C@H](CC[C@@H]4[C@@]5(C)CC=C(c6ccc(C(=O)O)cc6)C(C)(C)[C@@H]5CC[C@]43C)[C@@H]12 | 31 | 17 |  |  | 3000 |  | 6.1 | 1.62 | > 2 | > 2 | 3 |  |  | 2.3 | 10 | 396 | 3 | 3.814
C=C(C)[C@@H]1CC[C@]2(C(=O)NCCN3CCOCC3)CC[C@]3(C)[C@H](CC[C@@H]4[C@@]5(C)CC=C(c6ccc(C(=O)O)cc6)C(C)(C)[C@@H]5CC[C@]43C)[C@@H]12 | 77 |  | 28 | 7 | 5000 | 12 |  |  |  |  |  |  |  |  |  |  |  | 
C=C(C)[C@@H]1CC[C@]2(C(=O)NCCCN(C)C)CC[C@]3(C)[C@H](CC[C@@H]4[C@@]5(C)CC=C(c6ccc(C(=O)O)cc6)C(C)(C)[C@@H]5CC[C@]43C)[C@@H]12 | 50 |  | 3 | 2 | 500 | 9 | 8.3 | 0.116 | > 2 | > 2 |  |  |  |  |  | 36 |  | 
C=C(C)[C@@H]1CC[C@]2(C(=O)NCCN(C(C)C)C(C)C)CC[C@]3(C)[C@H](CC[C@@H]4[C@@]5(C)CC=C(c6ccc(C(=O)O)cc6)C(C)(C)[C@@H]5CC[C@]43C)[C@@H]12 | 69 |  |  | 4 | 3000 | 13 | 4.3 | 1.31 | > 2 | > 2 |  |  |  |  |  | 302 |  | 
C=C(C)[C@@H]1CC[C@]2(C(=O)O)CC[C@]3(C)[C@H](CC[C@@H]4[C@@]5(C)CC[C@H](OC(=O)CC(C)(C)C(=O)O)C(C)(C)[C@@H]5CC[C@]43C)[C@@H]12 [BEVIRIMAT] | > 10000 |  |  |  |  |  |  |  |  |  | 40 |  |  |  |  |  |  | 
